{"source": "patent US20160324770A1", "about": "“INTRATHECAL ADMINISTRATION, PREFERABLY INTRAVENTRICULAR, OF MTOR INHIBITORS FOR THE THERAPY OF SOME NEURODEGENERATIVE, NEUROINFLAMMATORY AND NEURO-ONCOLOGIC DISEASES” (priority 2012, published 2016)", "origin": "cited, not measured here", "details": "cited from earlier work", "data": [{"smiles": "CO[C@H]1C[C@@H]2CC[C@@H](C)[C@@](O)(O2)C(=O)C(=O)N2CCCC[C@H]2C(=O)O[C@H]([C@H](C)C[C@@H]2CC[C@@H](O)[C@H](OC)C2)CC(=O)[C@H](C)/C=C(\\C)[C@@H](O)[C@@H](OC)C(=O)[C@H](C)C[C@H](C)/C=C/C=C/C=C/1C", "note": "[rapamycin]", "values": [{"measurement": "half-life", "setting": "according to the FDA", "value": 62, "unit": "h"}, {"measurement": "half-life compared to everolimus", "value": "more than double that time"}]}]}
